In US7790400B2, “Delta-9-tetrahydrocannabinol detection method” (Concateno UK Limited, priority 2004, dated 2010):

Columns and labels:
[1] = tested on: gold-labelled mouse monoclonal anti-THC antibody; experiment: Lateral flow immunochromatography test for cannabis, immobilised BSA-CAN (5-pentylresorcinol/BSA) conjugate, spiked oral fluid, Cozart Rapiscan reader; conditions: for Detectable level by competitive immunoassay: 5-pentylresorcinol conjugate with commercial anti-THC antibody; for Concentration giving positive Cozart Rapiscan Response: immobilised conjugate BSA-CAN, lowest concentration in spiked drug-free oral fluid giving a positive signal on the reader
[2] = tested on: gold-labelled mouse monoclonal anti-THC antibody; experiment: Lateral flow immunochromatography test for cannabis, immobilised BSA-THC conjugate, spiked oral fluid, Cozart Rapiscan reader; conditions: lowest concentration in spiked drug-free oral fluid giving a positive signal on the reader
[3] = tested on: mouse monoclonal anti-THC antibody; experiment: Interference of free 5-pentylresorcinol with antibody binding to immobilised 5-pentylresorcinol-macromolecule conjugates; conditions: 5-pentylresorcinol in free solution
[4] = tested on: antibodies raised to THC-COOH coupled to a carrier protein via the phenolic group at C1; conditions: relative to THC-COOH; commercially available assay; cited from earlier work

| SMILES | Detectable level by competitive immunoassay [1] | Concentration giving positive Cozart Rapiscan Response [1] | Concentration giving positive Cozart Rapiscan Response [2] | Interference with binding of anti-THC antibody to immobilised conjugate [3] | Increase of sensitivity of detection with BSA-CAN versus BSA-THC ([1]; lateral flow strips, BSA-CAN compared with BSA-THC) | Cross-reactivity [4] | Sensitivity of detection compared with the parent drug THC ([1]; 5-pentylresorcinol conjugate and anti-THC antibody combination) |
| --- | --- | --- | --- | --- | --- | --- | --- |
| CCCCCc1cc(O)c2c(c1)OC(C)(C)[C@@H]1CCC(C(=O)O)=C[C@@H]21 [THC—COOH, 11-nor-9-carboxy-delta-9-THC] | about 1.0 ng/ml | 1.0 ng/mL | 10 ng/mL | – | – | – | – |
| CCCCCc1cc(O)cc(O)c1 [5-pentylresorcinol] | – | – | – | does not interfere | – | – | – |
| CCCCCc1cc(O)c2c(c1)OC(C)(C)[C@@H]1CCC(C)=C[C@@H]21 [THC, Delta-9-tetrahydrocannabinol] | ≤ 20 ng/mL | 20 ng/mL | 200 ng/mL | – | about 10 fold | 5% | – |
| CCCCCc1cc(O)c2c(c1)OC(C)(C)[C@@H]1CCC(CO)=C[C@@H]21 [THC—OH, 11-hydroxy-delta-9-THC] | – | 20 ng/mL | 200 ng/mL | – | – | – | comparable sensitivity to the parent drug |
